From patent US7009051B2, “4-(2-pyridyl) piperazines having 5HT7 receptor agonist activity” (Pfizer Inc, priority 2001, dated 2006)
Counter-ions that a name gives are not always drawn.

- melting point: 141 to 143 °C
SMILES: c1cncc(COc2cccc(N3CCNCC3)n2)c1 (as salt: HCl) [II, 1-[6-(Pyridin-3-ylmethoxy)-pyridin-2-yl]-piperazine]
